Results from PMC5557808 (Nature Communications, 2017).

How the values were obtained:
MMP-8 [1] = assay: MMP-8 buffer (200 mM NaCl, 50 mM Tris-HCl, 5 mM CaCl2, 1 µM ZnCl2, 0.05% Brij 35 at pH 6.8–7.0); conditions: human, 37 °C, up to 6 hours
MMP-8 [2] = assay: MMP-8 in MMP-8 buffer; conditions: human, 37 °C, up to 22 h
[3] = system: Leucine aminopeptidase (AP); assay: AP-incubated peptide (without MMP-8); conditions: porcine kidney
MMP-8 [4] = target: T1, MMP-8 (Homo sapiens, UniProt P22894); assay: MMP-8 cleavage of soluble PCL conjugates (HPLC decrease of main peak); assay type: biochemical; conditions: 900 ng/mL MMP-8, after 360 min; 0.5 mg/mL substrate, MMP-8 buffer pH 6.8-7.0, 37 °C under agitation; HPLC; mean, n = 8
T1 construct: purchased EMD Millipore Corporation (Billerica, MA)
Description: Pro-MMPs (e.g., MMP-8, MMP-1, or MMP-9; used at 0.1 mg/mL and >100.0 mU/mg based on the manufacturer’s information) were activated with p-aminophenylmercuric acetate (APMA) (8). For that, a 10 mM stock solution of APMA was freshly prepared in 0.1 M NaOH and a 10:1 (v/v) ratio of the respective proenzyme and the APMA solution (MMP:APMA) was incubated for 3 h at 37 °C. The activity was confirmed using the MMP-8 detection kit (QuickZyme Biosciences, Leiden, the Netherlands). A stock solution (90 µg/mL) of the activated MMP was prepared (used for cleavage studies on the PCL or the fully assembled microparticle-PCL-tastant setup (sensor), in MMP-8 buffer (200 mM NaCl, 50 mM Tris-HCl, 5 mM CaCl2, 1 µM ZnCl2, 0.05% Brij 35 at pH 6.8–7.0). All MMP experiments are described in detail in the Supplementary Methods. […]
in water ( v/v)) and eluent B (0.1 % TFA in 2:3 water-acetonitrile (v/v)) and a gradient from 33 to 80% elu ent B within 30 minutes. UV absorption was r ead at λ = 280 nm or 220 nm. After freezing the samples at -80 °C, fr eeze- drying was performed on a Christ Alpha 1 -4 de vi ce (Martin Christ Gefriertrocknungs anlagen, Osterode am Harz, G e r ma n y) at a desublimers ’ te mperature of - 60 ° C, pressure of 1.030 mbar and processing temperature of 19 °C.
Pro-MMPs (e. g. MMP -8, MMP -1 or MMP-9; adapted to 0.1 mg/mL and > 100.0 mU/mg based on manufacturer information and when appropriate) were activated with APMA 8. For that, a 10 mM stock solution of APMA in 0.1 M NaOH was freshly prepared and a 10:1 (v/v) ratio of the r especti ve proenzyme and APMA solution (MMP:APMA) was incubated for 3 h at 37 °C. The activity was conf ir med using the MMP-8 detection kit (Q uic kZ ym e® Biosciences, Leiden, Netherlands). A stock solution (90 µg/mL) of the activated MMP was prepared (used for cleavage studies on the pr ot eas e-cleavable linker (PCL; e.g. Figure 2) or the fully assemb led microparticle -PCL- t ast ant setup (sensor; e.g. Figure 3) , in MMP -8 buffer (200 mM NaCl, 50 mM Tris-H Cl, 5 mM C aC l2, 1 µM ZnCl2, 0.05 % Brij35 at pH 6.8- 7.0). A ll MMP -8 exp eriments wer e performed as follo ws. 25 µg of the sensor ( see chap ter : Peptide-coupling to beads (Sensor)) in 100 µL MMP-buffer or 1 mg of FP LC -purified and lyophilized PCL as described dissolved 2 mL M MP -buffer resulting in a final concentration of 0.5 mg/ mL substrate was used. […]
Figure 2A , 3, 4B ). […]
(sensor) in co mpar ison to negative controls (the negative controls for the PCL an d sensor exper i men ts were b y incubation without MMP under otherwise identical conditions). The relative d ecreas e of the PCL’s ma in peak was char act er ized by HPLC (PCL) or of the sensor’s fluorescence b y FACS (sensor) in comparison to control. […]

[5] = system: MMP-1, MMP-8, MMP-9, MMP-13; assay: MMP selectivity of the soluble PCL carboxyfluorescein conjugate; assay type: biochemical, human; conditions: MMPs at 900 ng/mL, 60 min, 37 °C; HPLC
Description: Pro-MMPs (e.g., MMP-8, MMP-1, or MMP-9; used at 0.1 mg/mL and >100.0 mU/mg based on the manufacturer’s information) were activated with p-aminophenylmercuric acetate (APMA) (8). For that, a 10 mM stock solution of APMA was freshly prepared in 0.1 M NaOH and a 10:1 (v/v) ratio of the respective proenzyme and the APMA solution (MMP:APMA) was incubated for 3 h at 37 °C. The activity was confirmed using the MMP-8 detection kit (QuickZyme Biosciences, Leiden, the Netherlands). […]
Enzymatic reactions were stopped using 4 µL 250 mM ED TA in case of the sensor or heating in cas e of uncoupled PCL (95 °C for 15 minutes; the beads of the sensor would melt at h eatin g due to a different method used). Cleavage was analyzed by […] an al ysis (PCL) or by flow c yto metr y (sensor) in co mpar ison to negative controls (the negative controls for the PCL an d sensor exper i men ts were b y incubation without MMP under otherwise identical conditions). The relative d ecreas e of the PCL’s ma in peak was char act er ized by HPLC (PCL) or of the sensor’s fluorescence b y FACS (sensor) in comparison to control. […]

[6] = system: Leucine aminopeptidase from porcine kidney; assay: AP buffer (50 mM Tris-HCl, 1 mM CaCl2 and 150 mM NaCl at pH 7.0); conditions: 37 °C, up to 20 h
[7] = system: Leucine aminopeptidase (AP); assay: AP buffer (50 mM Tris-HCl, 1 mM CaCl2, and 150 mM NaCl at pH 7.0); conditions: porcine kidney, 37 °C, up to 20 h
human tongue = conditions: cited from earlier work
Description: Sensor design was driven by physiological insights on taste. Structurally diverse molecules are bitter tasting, including polyphenols, flavonoids, or methylxanthines (caffeine)[3]. The main function of sensing bitter taste is linked to the detection of poisonous substances. This would readily explain why bitter taste is so sensitively recognized with some molecules being recognized in the nanomolar range[4]. The human tongue senses bitterness of denatonium down to concentrations of 10 nM with consumer products containing as little as 30–100 ppm[5]. […] To date, it is the mo s t bitter substance known and th e b itter taste can be detected at concentrations of 10 ppb 2. Because of its lower toxicity as co mpar ed to the b itter molecules brucine 3 or str ychnin e it is wid el y used as an additive for denaturing alcohol, deter gents, dis ...

T1 sequence (P22894 101-467): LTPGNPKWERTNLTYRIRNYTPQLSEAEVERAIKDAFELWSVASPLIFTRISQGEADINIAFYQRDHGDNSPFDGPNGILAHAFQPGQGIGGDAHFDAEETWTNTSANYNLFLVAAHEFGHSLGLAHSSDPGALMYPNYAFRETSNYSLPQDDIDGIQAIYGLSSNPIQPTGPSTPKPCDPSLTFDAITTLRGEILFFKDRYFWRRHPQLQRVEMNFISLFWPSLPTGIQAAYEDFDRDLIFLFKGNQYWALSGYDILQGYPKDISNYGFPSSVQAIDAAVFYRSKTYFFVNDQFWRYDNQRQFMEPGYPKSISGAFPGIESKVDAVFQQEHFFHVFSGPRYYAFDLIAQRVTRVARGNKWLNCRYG

What does the source list for De-GPQGIAGQ-A( N3)-Q?
cleaved bond (MMP-8 [1]): G-I; cleaved bond (MMP-8 [2]): G-I; not cleaved [3]: one HPLC-peak at 7.178 min with a mass of 1331.9 Da, as negative control

Which “Cleavage (%) of the PCL over incubation time, plateau” value (MMP-8 [4]) does the source give for “Cf-GP QGIA GQ-A( N3)-Q [ID #1b, PCL carboxyfluorescein conjugate]” here?
The value was over 50%.

And the “MMP sensitivity rank order of the soluble PCL conjugate” value [5]?
The value was “MMP-8 = MMP-9 > MMP-13 > MMP-1”.

With De-GPQGIAGQ-A(N3)-Q as the compound, how does the not cleaved [6] read?
The not cleaved was “one HPLC peak, mass 1331.9 Da after AP incubation”.

Which fragment found [7] does the source give for I AGQ-K-De here?
The fragment found was “denatonium coupled to lysine”.

For `CC[N+](CC)(CC(=O)Nc1c(C)cccc1C)Cc1ccccc1.[Cl-]` [Denatonium chloride], which “concentration at which the bitter taste can be detected” value (human tongue; ref 2 (Supplementary References)) is on record?
Its value is 10 ppb.

With `CC[N+](CC)(CC(=O)Nc1c(C)cccc1C)Cc1ccccc1` [Denatonium, Denatonium benzoate] as the compound, how does the “concentration down to which the human tongue senses bitterness” value (human tongue) read?
The value was 10 nM.
